Like-named read-outs stand apart in the source and are kept apart here.
How the values were obtained:
glucose = test: Study 3: whole blood glucose, single fasting test subject, crossover; assay type: in vivo, human
[1] = Study 3: plasma concentration of active substance, single test subject; assay type: in vivo, human; conditions: for Cmax: read-out: Maximum concentration; for Tmax: read-out: Time of peak concentration; for concentration at 1.5 h: 1.50 h; for concentration at 2.5 h: 2.50 h; for concentration at 3.5 h: 3.50 h
clinical = conditions: human, plasma, 1 mg
Procedure: More specifically, the studies which follow were carried out on healthy male volunteers in whom the levels of glucose and active substance in the course of time were determined:
In the interests of more precise clarification, study 5 was carried out (randomised, open, crossover). […] 2 hours after administration a standard breakfast (B) was eaten, 5 hours after administration a standard lunch (L) was eaten and 10 hours after administration a standard dinner (D) was eaten. Blood samples were taken at different times. The glucose concentrations were measured in the plasma as in study 1. […] The plasma concentrations of AG-EE 624 ZW were calculated as the difference between the two concentrations found:

In the case of CCOc1cc(CC(=O)NC(CC(C)C)c2ccccc2N2CCCCC2)ccc1C(=O)O (racemic) [AG-EE 388 ZW, 2-ethoxy-4-[N-[1-(2-piperidino-phenyl)-3-methyl-1-butyl]aminocarbonylmethyl]-benzoic acid], the “Glucose, deviation against t = 0” value (glucose; 2 mg, 6.00 h) is reported as -16%, the “Maximum lowering of blood glucose” value (glucose; 4 mg) is reported as -38% and the Onset of effect (glucose; 4 mg) is reported as “about 1.0 hour”. For the same compound, the “Time of maximum blood sugar reduction” value (glucose; 4 mg) was 2.0 h, the “Glucose, deviation against t = 0” value (glucose; 4 mg capsule, 0 h) was 0% and the “Glucose, deviation against t = 0” value (glucose; 4 mg, 0.50 h) was -3%. For the same compound, the “Glucose, deviation against t = 0” value (glucose; 4 mg, 0.75 h) was -1%, the “Glucose, deviation against t = 0” value (glucose; 4 mg, 1.00 h) was -7% and the “Glucose, deviation against t = 0” value (glucose; 4 mg, 1.25 h) was -15%. For the same compound, the “Glucose, deviation against t = 0” value (glucose; 4 mg, 1.50 h) was -21%, the “Glucose, deviation against t = 0” value (glucose; 4 mg, 1.75 h) was -32% and the “Glucose, deviation against t = 0” value (glucose; 4 mg, 2.00 h) was -38%. For the same compound, the “Glucose, deviation against t = 0” value (glucose; 4 mg, 2.50 h) was -34%, the “Glucose, deviation against t = 0” value (glucose; 4 mg, 3.00 h) was -28% and the “Glucose, deviation against t = 0” value (glucose; 4 mg, 3.50 h) was -24%. The “Glucose, deviation against t = 0” value (glucose; 4 mg, 4.00 h) was -26%, the “Glucose, deviation against t = 0” value (glucose; 4 mg, 5.00 h) was -24% and the “Glucose, deviation against t = 0” value (glucose; 4 mg, 6.00 h) was -23%. The “Glucose, deviation against t = 0” value (glucose; 4 mg, 7.00 h) was -20%, the “Glucose, deviation against t = 0” value (glucose; 4 mg, 8.00 h) was -25% and the Active substance concentration ([1]; 2 mg, 5.00 h) was 0 ng/mL. The Active substance concentration ([1]; 4 mg capsule, 0 h) was 0 ng/mL, the Active substance concentration ([1]; 4 mg, 0.50 h) was 0 ng/mL and the Cmax ([1]; human, plasma, po, 2 mg, 2 mg capsule) was 82 ng/mL. For the same compound, the Tmax ([1]; human, plasma, po, 2 mg) was 1.75 h, the Cmax ([1]; human, plasma, po, 4 mg, 4 mg capsule) was 150 ng/mL and the Tmax ([1]; human, plasma, po, 4 mg) was 1.5 h. The concentration at 0.5 h ([1]; human, plasma, po, 2 mg capsule, 0.50 h) was 11 ng/mL, the concentration at 0.75 h ([1]; human, plasma, po, 2 mg) was 16 ng/mL and the concentration at 1 h ([1]; human, plasma, po, 2 mg) was 40 ng/mL. It also gave a concentration at 1.25 h ([1]; human, plasma, po, 2 mg) of 44 ng/mL, a concentration at 1.5 h ([1]; human, plasma, po, 2 mg) of 68 ng/mL and a concentration at 1.75 h ([1]; human, plasma, po, 2 mg) of 82 ng/mL. The concentration at 2 h ([1]; human, plasma, po, 2 mg) was 82 ng/mL, the concentration at 2.5 h ([1]; human, plasma, po, 2 mg) was 80 ng/mL and the concentration at 3 h ([1]; human, plasma, po, 2 mg) was 72 ng/mL. The concentration at 3.5 h ([1]; human, plasma, po, 2 mg) was 59 ng/mL, the concentration at 4 h ([1]; human, plasma, po, 2 mg) was 32 ng/mL and the concentration at 0.75 h ([1]; human, plasma, po, 4 mg) was 10 ng/mL. The concentration at 1 h ([1]; human, plasma, po, 4 mg) was 72 ng/mL, the concentration at 1.25 h ([1]; human, plasma, po, 4 mg) was 130 ng/mL and the concentration at 1.5 h ([1]; human, plasma, po, 4 mg) was 150 ng/mL. The concentration at 1.75 h ([1]; human, plasma, po, 4 mg) was 148 ng/mL, the concentration at 2 h ([1]; human, plasma, po, 4 mg) was 141 ng/mL and the concentration at 2.5 h ([1]; human, plasma, po, 4 mg) was 119 ng/mL. The concentration at 3 h ([1]; human, plasma, po, 4 mg) was 109 ng/mL, the concentration at 3.5 h ([1]; human, plasma, po, 4 mg) was 84 ng/mL and the concentration at 4 h ([1]; human, plasma, po, 4 mg) was 71 ng/mL. For the same compound, the concentration at 5 h ([1]; human, plasma, po, 4 mg, 5.00 h) was 64 ng/mL, the concentration at 6 h ([1]; human, plasma, po, 4 mg, 6.00 h) was 49 ng/mL and the concentration at 7 h ([1]; human, plasma, po, 4 mg, 7.00 h) was 21 ng/mL. The concentration at 8 h ([1]; human, plasma, po, 4 mg, 8.00 h) was 18 ng/mL, the concentration at 0.08 h (clinical; iv) was 33.3 ng/mL and the concentration at 0.17 h (clinical; iv) was 74.8 ng/mL. For the same compound, the concentration at 0.25 h (clinical; iv) was 104 ng/mL, the concentration at 0.28 h (clinical; iv) was 102 ng/mL and the concentration at 0.33 h (clinical; iv) was 85.6 ng/mL. It also gave a concentration at 0.42 h (clinical; iv) of 69.6 ng/mL, a concentration at 0.5 h (clinical; iv) of 60.1 ng/mL and a concentration at 0.75 h (clinical; iv) of 44.2 ng/mL. The concentration at 1 h (clinical; iv) was 35.8 ng/mL, the concentration at 1.25 h (clinical; iv) was 31.4 ng/mL and the concentration at 1.5 h (clinical; iv) was 27 ng/mL. It also gave a concentration at 2 h (clinical; iv) of 21 ng/mL, a concentration at 2.5 h (clinical; iv) of 17.6 ng/mL and a concentration at 3 h (clinical; iv) of 13.5 ng/mL. For the same compound, the concentration at 4 h (clinical; iv) was 9.4 ng/mL, the concentration at 5 h (clinical; iv) was 7 ng/mL and the concentration at 6 h (clinical; iv) was 4 ng/mL. It also gave a concentration at 9 h (clinical; iv) of 1.5 ng/mL, a concentration at 0.5 h (clinical; po) of 35.1 ng/mL and a concentration at 0.75 h (clinical; po) of 40.2 ng/mL. For the same compound, the concentration at 1 h (clinical; po) was 39.1 ng/mL, the concentration at 1.5 h (clinical; po) was 30.8 ng/mL and the concentration at 2 h (clinical; po) was 24 ng/mL. For the same compound, the concentration at 3 h (clinical; po) was 14.8 ng/mL, the concentration at 4 h (clinical; po) was 8.7 ng/mL and the concentration at 5 h (clinical; po) was 5.6 ng/mL. It also gave a concentration at 6 h (clinical; po) of 3.5 ng/mL and a concentration at 9 h (clinical; po) of 1.8 ng/mL.

Source: patent US6143769A, “Phenylacetic acid benzylamides” (Karl Thomae GmbH, priority 1983, dated 2000)
